Measurements taken from ChEMBL document CHEMBL4680271, “COVID-19: Drug Targets and Potential Treatments” (J Med Chem, 2020).

Assay: Inhibition of CTSL/CTSB in 293T/17 cells harboring ACE2 assessed as reduction in SARS-CoV-2 S pseudovirions entry into host cell incubated for 2 days by luciferase method
Format: cell-based
Conditions: Severe acute respiratory syndrome-related coronavirus, HEK293T/17, 48 h

For `CC(C)(C)N1CCN(C(=O)N[C@@H](Cc2ccccc2)C(=O)N[C@H](/C=C/S(=O)(=O)c2ccccc2)CCc2ccccc2)CC1`, the IC50 was 0.08 nM.

`CN1CCN(C(=O)N[C@@H](Cc2ccccc2)C(=O)N[C@H](/C=C/S(=O)(=O)c2ccccc2)CCc2ccccc2)CC1` [K-777] showed an IC50 of 0.32 nM.
